Experimental findings from patent US4857516A, “Coumaran derivatives and their pharmaceutical use” (Takeda Chemical Industries, Ltd., priority 1986, dated 1989) are described below.

Assay [1] concerns excitatory behavior induced by FeCl2 in mice. Kind of assay: Excitatory behavior induced by spinal intrathecal injection of FeCl2 in mice. The format is in vivo, mouse. The settings on record: 100 mg/kg p.o.; for Score (mean behavioral score): 30 min. prior to FeCl2, 0 normal to 5 death; for Percent inhibition (of mean score): vs vehicle p.o. As to the method: Male Slc:ICP mice (5 weeks) were used. Each group consisted of 10 mice. 5 μl of 50 mM FeCl2 in saline was injected into spinal subarchnoid space betwen the 1st sacral and the 6th lumbar segment, the behavioral responses were observed from 15 min. to 1 hr. after the intrathecal injection of FeCl2 and scored as follows.
Score Behavioral responses
0: normal (no abnormal behavior)
1: vigorously biting lower abdomen or lower extremities
(a) extremely biting lower body with rolling
(b) hyperreactivity and agressive to external stmuli
at least one of above three behavioral changes were observed
4: tonic convulsion or paralysis of lower extremities.
The test compounds (100 mg/kg) were orally administered 30 min. prior to FeCl2 injection.

Another assay deals with T1, 5-lipoxygenase (Rattus norvegicus, UniProt P12527).
T1 construct: endogenous in cells; host or cells: RBL-1 (rat basophilic leukemia cells)
T1 sequence (P12527 1-673): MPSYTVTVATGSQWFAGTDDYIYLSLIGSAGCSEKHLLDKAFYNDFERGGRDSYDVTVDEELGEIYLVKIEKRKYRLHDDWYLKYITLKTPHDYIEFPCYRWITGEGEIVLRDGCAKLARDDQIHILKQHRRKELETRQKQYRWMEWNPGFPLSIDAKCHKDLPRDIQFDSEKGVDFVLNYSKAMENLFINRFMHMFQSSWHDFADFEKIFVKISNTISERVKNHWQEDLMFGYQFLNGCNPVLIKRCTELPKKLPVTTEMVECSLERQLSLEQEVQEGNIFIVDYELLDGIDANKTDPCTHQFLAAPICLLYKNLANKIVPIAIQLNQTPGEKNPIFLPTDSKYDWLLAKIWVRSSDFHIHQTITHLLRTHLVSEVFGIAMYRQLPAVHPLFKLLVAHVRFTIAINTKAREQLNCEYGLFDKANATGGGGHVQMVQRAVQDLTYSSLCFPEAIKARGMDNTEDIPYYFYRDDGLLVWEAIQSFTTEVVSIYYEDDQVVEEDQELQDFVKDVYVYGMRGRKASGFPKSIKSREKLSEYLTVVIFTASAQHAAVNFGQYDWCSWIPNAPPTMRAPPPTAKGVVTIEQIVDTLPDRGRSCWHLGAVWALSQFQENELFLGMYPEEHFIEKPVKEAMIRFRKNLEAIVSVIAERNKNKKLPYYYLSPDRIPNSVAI
As to the kind of experiment: Inhibition of 5-lipoxygenase (5-HETE production in RBL-1 cells). It is filed as cell-based. On the procedure:
10^7 RBL-1 cells (rat basophilic leukemia cells) were suspended in 0.5 ml of MCM (mast cell medium). […] Then 4 ml of ethanol was added, and the mixture was well shaken and kept at room temperature for 10 min.
The mixture was centrifuged for 10 min. (2000 rpm), and the supernatant was separated. The supernatant obtained was concentrated to dryness under reduced pressure. To the residue 0.5 ml of 60 v/v % aqueous methanol was added. One hundred μl of this solution was subjected to high performance liquid chromatography for quantitative analysis of 5-HETE (5-hydroxyeicosatetraenoic acid). The amount of 5-HETE was determined by measurement of the absorbance at 237 nm with a UV absorption monitor.
The inhibitory effect (IE) of production of 5-HETE is expressed by (1-b/a)×100, wherein a is the peak height or the area corrected with the peak due to the internal standard in the absence of the compound (I) or a pharmaceutically acceptable salt thereof, and b is the peak height or peak area corrected with the peak due to the internal standard in the presence of the compound (I) or a pharmaceutically acceptable salt thereof.

Assay [2] concerns lipid peroxide production in rat brain homogenates. Kind of assay: Inhibitory action on lipid peroxide production in rat brain homogenates. It is filed as biochemical. To be noted: 5 v/v % rat brain homogenate, pH 7.4, 1 hour at 37° C.; read-out: Inhibition (IC50) of lipid peroxide production. On the procedure:
The male SD rat (12 weeks) brain tissue was extracted under anesthesia after depletion. The extracted brain tissue was used as 5 v/v % homogenate in phosphate buffer (pH 7.4). After incubation of the homogenate for 1 hour at 37° C., the peroxide produced was determined by the thiobarbituric acid method according to the method described in Analytical Biochemistry, 95, 551 (1979).
Before incubation, test compounds were added in 5 v/v % homogenate so that their final concentration becomes 10^-5 M. […]

Assay [3] concerns neurological deficits in rats with cerebral ischemia. Kind of assay: Neurological deficits in rats with experimental cerebral ischemia. The format is in vivo, rat. The settings on record: p.o. On the procedure: Male Crj:Wistar rats, that were 7 weeks old at the time of electocauterization of the bilateral vertebral arteries, were used. Electrocauterization of the bilateral vertebral arteries was performed under pentobarbital Na (40 mg/kg, i.p.) anesthesia. Global cerebral ischemia was produced by 20 min. occlusion of both common carotid arteries 24 hr after the permanent electrocauterization of the bilateral vertebral arteries (Pulsinelli W. A. and Brierly J. B., Stroke 10, 267-272 (1979).
The compound of Example 20 was given orally as a single dose immediately after the reperfusion of both carotid arteries.
1; decrease in spontaneous motor activity, piloerection, ptosis, miosis, hyperirritability, slight ataxia
2; moderate to servere ataxia
3; loss of righting reflex, slight convulsions
4; severe convulsions, coma
The median neurological deficit scores of the drug-treated groups were compared with that of saline-treated control. Statistical analysis was done using the Mann-Whitney U-test.

The test system of assay [4] is neurological deficits caused by spinal cord compression in rats. As to the kind of experiment: Functional neurologic impairment induced by spinal cord compression in rats. It is filed as in vivo, rat. To be noted: 40 mg/kg, p.o. The text has this:
(§1) Male Jcl:Wistar rats, weighing about 350 g at the time of spinal cord compression were used. A spinal cord injury was produced in rats by compressing the spinal cord with a stainless screw of 2.8 mm length and 2 mm diameter at thoracic 11 (T11) level under pentobarbital anesthesia. On the day of the operation, the screw was placed so that the end was just above the subarachnoid membrane of the spinal cord.
(§2) On the following day, the screw was completely tightened to compress the spinal cord without penetrating the subarachnoid membrane. After compression of the spinal cord for 60 min., the screw was removed. Test compounds were given orally 5 min. after the removal of screw.
0; flaccid paralysis, no movement of hind limbs, no response to pinching of tail with foreceps (i.e. movement of fore limbs, biting foreceps, vocalization)
1; no movement of hind limbs, but responds to pinching of tail with foreceps
2; uncoordinated movement (loss of coordination between limbs), but can not support own weight
3; movement with an impairment (general coordination between limbs), but can not support own weight
4; walking with a slight ataxia of the hind limbs, but can support own weight
(§3) The median neurological score of the drug-treated groups were compared with that saline-teated control group. Statistical analysis was done using the Mann-Whitney U-test. The incidence of rats showing urinary incontinence was also compared by the .chi.^2 -test.

Assay [5] deals with urinary incontinence in rats with spinal cord compression. As to the kind of experiment: Incidence of rats showing urinary incontinence (spinal cord compression). It is filed as in vivo, rat. To be noted: 40 mg/kg, p.o. More on the design: Incidence of rats showing urinary incontinence: unit not given here.
Description: as §1, §2, §3

Setting [6] is: day 3, Ex. 7 *p < 0.05, Ex. 20 **p < 0.01.

For orientation: inhibition means the drop in the measured response relative to a control, in per cent. Usually IC50 stands for the point on the concentration scale where inhibition reaches its midpoint.

Regarding `Cc1c(C)c2c(c(C)c1O)C(c1ccc(Br)cc1)C(C)(C)O2` (centres unmarked) [Example 11], in assay [1], the “Score (mean behavioral score)” value amounted to 0.7 and the “Percent inhibition (of mean score)” value amounted to 84%.

Consider `Cc1c(C)c2c(c(C)c1O)C(c1ccc(Cl)cc1)C(C)(C)O2` (centres unmarked) [Example 13], for which, in assay [1], the “Score (mean behavioral score)” value was found to be 0.7 and the “Percent inhibition (of mean score)” value is recorded as 83%.

`Cc1c(C)c2c(c(C)c1O)C(c1ccc(C(C)C)cc1)C(C)(C)O2` (centres unmarked) [Example 20, 5-hydroxy-2,2,4,6,7-pentamethyl-3-(4-isopropylphenyl)-2,3-dihydrobenzofuran]: testing at 1 µM at 5-lipoxygenase (10^-6 M) gave an inhibition of 100%. Besides, on 5-lipoxygenase (10^-7 M), the inhibition at 0.1 µM turned out to be 42%. On 5-lipoxygenase (10^-8 M), this molecule returned an inhibition at 0.01 µM of 36%. Moreover, the IC50 in assay [2] is 25 nM. Also, the “neurological deficit score (median value)” value (shortened to “neurological deficit score”) in assay [3] (10 mg/kg, day 1, 0 normal to 5 death) is 2; in assay [3] (10 mg/kg, day 2), 2; in assay [3] (10 mg/kg, day 3, *p < 0.05), 1.5; in assay [3] (10 mg/kg, day 5, **p < 0.01), 1; in assay [3] (10 mg/kg, day 7, *p < 0.05) it was 1; in assay [3] (10 mg/kg, day 10, **p < 0.01), 0. The “neurological deficit score” value in assay [3] (10 mg/kg, day 14) stood at 0; in assay [3] (40 mg/kg, day 1, 0 normal to 5 death), 2; in assay [3] (40 mg/kg, day 2) it was 2; in assay [3] (40 mg/kg, day 3, **p < 0.01) it was 1; in assay [3] (40 mg/kg, day 5, **p < 0.01), 1; in assay [3] (40 mg/kg, day 7, *p < 0.05), 1. Besides, the “neurological deficit score” value in assay [3] (40 mg/kg, day 10, *p < 0.05) was 0. Moreover, the “neurological deficits caused by transient cerebral ischemia (in words)” value in assay [3] (10 and 40 mg/kg) was “significantly ameliorated the neurological deficits”. Besides, the “neurological score (median value)” value in assay [4] (day 1, 0 flaccid paralysis to 5 normal gait, Ex. 20 **p < 0.01) is 2; in assay [4] (setting [6]), 3; in assay [4] (day 7, Ex. 20 **p < 0.01), 4; in assay [4] (day 14, Ex. 20 *p < 0.05), 4. Also, in assay [4] (Table 4(III)), the “neurological impairment caused by spinal cord compression (in words)” value was “ameliorated the neurological impairment”. For the same molecule, the “Incidence of rats showing urinary incontinence” value in assay [5] (day 1, Ex. 20 **p < 0.01) was 0; in assay [5] (day 2, Ex. 20 **p < 0.01), 0; in assay [5] (setting [6]), 0; in assay [5] (day 5, Ex. 20 **p < 0.01), 0; in assay [5] (day 7, Ex. 7 *p < 0.05), 7.1; in assay [5] (day 10) it was 7.1. Also, in assay [5] (day 14), the “Incidence of rats showing urinary incontinence” value was 7.1. The “incidence of urinary incontinence (in words)” value in assay [5] (Table 4(IV)) is on record as “reduced the incidence of urinary incontinence”.
